{
  "source": "patent US20120244193A1",
  "about": "“PASSIVE SOLID TUMOR TARGETING ANTICANCER PRODRUG AND PREPARATION METHOD THEREOF” (priority 2009, published 2012)",
  "experiment_in_all_cases": "Inhibition of growth activity of tumor cell lines in vitro by MTT method",
  "key": {"A549": {"test_system": "A549", "format": "cell-based", "details": "Homo sapiens; A549, doxorubicin concentration 2 mg/ml, drug treatment 24 hours; read-out: Inhibition rate (%)", "method": "(§1) The passive solid tumor-targeted anticancer prodrug used in the test was prepared in the test example 1 (equivalent to 2 mg/ml doxorubicin).\n(§2) Cell solution (with concentration of 50,000 cells/ml) growing in logarithmic growth phase cultured with RPMI 1640 culture medium was inoculated on a 96 well plate with 0.1 ml/well, and subject to corresponding drug treatment after incubation for 24 hours. After drug treatment for 24 hours, 0.02 ml 5 mg/ml 3-(4,5-dimethylthiazolyl-2)-2,5-diphenyltetrazolium bromide (MTT) was added for treatment for 4 hours, then culture solution was removed, 0.15 ml dimethylsulfoxide (DMSO) was added, and light absorption value was determined at 570 nm by a microplate reader."}, "2780-S": {"test_system": "2780-S", "format": "cell-based", "details": "equivalent to 2 mg/ml doxorubicin, drug treatment 24 hours", "method": "as §1, §2"}, "2780-CP": {"test_system": "2780-CP", "format": "cell-based", "details": "equivalent to 2 mg/ml doxorubicin, drug treatment 24 hours", "method": "as §1, §2"}, "NCI-H446": {"test_system": "NCI-H446", "format": "cell-based", "details": "Homo sapiens; NCI-H446, doxorubicin concentration 2 mg/ml, drug treatment 24 hours; read-out: Inhibition rate (%)", "method": "as §1, §2"}, "B16": {"test_system": "B16", "format": "cell-based, mouse", "details": "B16, equivalent to 2 mg/ml doxorubicin, drug treatment 24 hours", "method": "as §1, §2"}},
  "note": "Where a name gives a salt, the structure may show the parent alone.",
  "data": [
    {"molecule": "COc1cccc2c1C(=O)c1c(O)c3c(c(O)c1C2=O)C[C@@](O)(C(=O)CO)C[C@@H]3O[C@H]1C[C@H](N)[C@H](O)[C@H](C)O1", "note": "[doxorubicin hydrochloride]", "values": [
      {"measurement": "inhibition at 2000 µg/mL", "setting": "A549", "value": 67.6, "unit": "%"},
      {"measurement": "Inhibition rate (%)", "setting": "2780-S", "value": 52.8, "unit": "%"},
      {"measurement": "Inhibition rate (%)", "setting": "2780-CP", "value": 49.3, "unit": "%"},
      {"measurement": "inhibition at 2000 µg/mL", "setting": "NCI-H446", "value": 63.3, "unit": "%"},
      {"measurement": "Inhibition rate (%)", "setting": "B16", "value": 85.9, "unit": "%"}
    ]}
  ]
}
